“And” between values parts separate entries of the source, which are not always exact repeats. Identical values can stand only once. Like-named read-outs stand apart in the source and are kept apart here.
Legend:
inflammation = conditions: cited from earlier work
[1] = test system: prostaglandin synthetase (cyclooxygenase); conditions: Flower, Pharmacol. Rev. 26:33 (1974); cited from earlier work
[2] = test system: flushing induced by nicotinic acid; type: in vivo, human
Protocol: Two weeks later, the same subjects were administered 40 of mg aspirin for each of four days.

[3] = test system: PGD-M, the major urinary metabolite of PGD2; assay: Urinary excretion of PGD-M after nicotinic acid (Example 1, FIGS. 1, 2); type: in vivo, human
Protocol: (§1) Two weeks later, the same subjects were administered 40 of mg aspirin for each of four days. […] Urinary excretion of PGD-M was much lower (FIG. 2), confirming the suppressive activity of aspirin on PGD2 release. Release of PGF2 after aspirin pretreatment (40 mg) was approximately 10% of baseline (FIG. 3).

PGF2 release = assay: PG release following topical nicotinic acid with or without aspirin pretreatment (FIG. 3); type: in vivo, human; conditions: aspirin pretreatment (40 mg) (FIG. 3)
Protocol: as §1

[4] = test system: flushing induced by nicotinic acid; assay: Niacin flushing after bid aspirin pretreatment (Example 2); type: in vivo, human
Protocol: Three subjects were administered 40 mg of aspirin twice daily (i.e., bid) in the morning and evening for three days.

[5] = test system: human macrophage cell line THP-1; assay: PG release from THP-1 cells in vitro (Examples 3 and 6); type: cell-based; conditions: for IC50: Homo sapiens
Description: Indomethacin was used in place of aspirin to inhibit PG production in THP-1 cells in vitro as in Example 3.

[6] = test system: flushing induced by niacin; assay: Niacin flushing after sustained release aspirin pretreatment (Example 7); type: in vivo, human
[7] = test system: flushing induced by nicotinic acid; assay: Cutaneous blood flow (FLUX) by laser Doppler, flushing severity and duration (Example 8); type: in vivo, human; conditions: mean ± S.D., n = 14
Protocol: (§2) Fourteen healthy male subjects completed the study. After randomization, subjects were given a placebo or 81 mg of aspirin bid for three days. The study was double-blind.
(§3) Room temperature and humidity were constant during the trial.
(§4) Flushing was measured in three ways: (1) quantitatively using laser Doppler, (2) subjectively via questionnaire, and (3) by measuring a biochemical marker of flushing, a stable metabolite of prostaglandin D2. Complete pharmacokinetic parameters in timed blood samples after oral administration were also measured in plasma and urine. Flushing, as measured by continuous and simultaneous recording of cutaneous blood flow on each side of the neck using laser Doppler techniques (Moor Instruments), provides an arbitrary representation of cutaneous blood flow defined as FLUX. Flux is expressed in arbitrary units (AU) from baseline (FLUXpeak-FLUXbaseline; see FIG. 11B). Duration of flush is the time in minutes from the beginning to the end of Flux shift in the DRTSOFT plot.

[8] = test system: flushing induced by nicotinic acid; assay: Local skin temperature change (Example 8); type: in vivo, human; conditions: mean ± S.D.; n = 14; p = 0.016 (paired t test)
Protocol: as §2, §3

[9] = test system: flushing induced by nicotinic acid; assay: Rating of flushing by subject (Example 8); type: in vivo, human; conditions: number of subjects; n = 14; p < 0.05 (Wilcoxon)
Protocol: as §2, §3, §4

[10] = test system: flushing induced by nicotinic acid; assay: Rating of flushing by investigator (Example 8); type: in vivo, human; conditions: number of subjects; n = 14; p < 0.05 (Wilcoxon)
Protocol: as §2, §3, §4

[11] = test system: nicotinic acid-induced flush; conditions: pretreatment at 4.5 and 0.5 hr; indomethacin 25 or 50 mg/kg; aspirin 50, 100, or 200 mg/kg; cited from earlier work
[12] = test system: cutaneous flush induced by nicotinic acid; conditions: 975 mg total: 650 mg at 1 hr and 325 mg at 0.5 hr prior to nicotinic acid; cited from earlier work
[13] = test system: niacin-induced cutaneous reactions; conditions: cited from earlier work
platelet aggregation = conditions: cited from earlier work
[14] = test system: eicosanoid metabolites in urine; conditions: oral administration (FIG. 8)
Description: (§5) Langerhans cells, the macrophages of skin, may differ from other macrophages in releasing lesser amounts of eicosanoids other than PGD2.

[15] = test system: release of eicosanoids from skin; conditions: topical niacin (FIG. 7)
Description: as §5

[16] = test system: human circulating monocytes; conditions: FIG. 4
[17] = within days after initiating therapy; cited from earlier work
[18] = test system: prostaglandin F2, a metabolite of D; conditions: cited from earlier work
[19] = test system: PG production in other cell types; conditions: cited from earlier work
[20] = Physician's Desk Reference, 51st ed.
[21] = 325 mg aspirin 30 minutes prior to niacin
[22] = initial testing, out of 306 patients, over 33 months

CCc1cccc2c3c([nH]c12)C(CC)(CC(=O)O)OCC3 (stereo not shown) [Etodolac]
Minimum Anti-inflammatory Dosage (inflammation; Goodman and Gilman, 9th ed.): 200 mg

O=C(O)c1ccccc1Nc1cccc(C(F)(F)F)c1 [flufenamic acid]
inhibition of synthesis of PGs such as E2 and F2, concentrations [1]: high micromolar

O=C(c1ccccc1)c1ccc2n1CCC2C(=O)O (stereo not shown) [Ketorolac]
Minimum Anti-inflammatory Dosage (inflammation; Goodman and Gilman, 9th ed.): 5 mg

CN1C(C(=O)Nc2ccccn2)=C(O)c2ccccc2S1(=O)=O [Piroxicam]
Minimum Anti-inflammatory Dosage (inflammation; [20]): 10 mg

CCCCC1C(=O)N(c2ccccc2)N(c2ccccc2)C1=O [phenylbutazone]
inhibition of synthesis of PGs such as E2 and F2, concentrations [1]: high micromolar

O=C(O)Cc1ccccc1Nc1c(Cl)cccc1Cl [Diclofenac]
Minimum Anti-inflammatory Dosage (inflammation; Goodman and Gilman, 9th ed.): 100 mg

COc1ccc2cc(CCC(C)=O)ccc2c1 [Nabumetone]
Minimum Anti-inflammatory Dosage (inflammation; [20]): 500 mg

CC(=O)Oc1ccccc1C(=O)O [aspirin]
subjective sensation ([2]; 40 mg aspirin 1 hour prior to 500 mg immediate release nicotinic acid, all three subjects): subjective sensation of cutaneous warmth | flushing ([2]; 40 mg aspirin 1 hour prior to single 500 mg immediate release nicotinic acid, all three subjects): severe flushing | flushing after multi-day aspirin pretreatment ([2]; 40 mg aspirin each of four days, 500 mg nicotinic acid on fourth day 1 hour after aspirin, two of three subjects): virtually no flushing | flushing after multi-day aspirin pretreatment, third subject ([2]; 40 mg aspirin each of four days, 500 mg nicotinic acid on fourth day, third subject): some flushing, but less than that encountered previously | urinary excretion of PGD-M after multi-day aspirin ([3]; 40 mg aspirin each of four days, 500 mg nicotinic acid on fourth day (FIG. 2)): much lower | release of PGF2 after aspirin pretreatment (PGF2 release): approximately 10 % of baseline | flushing, bid aspirin pretreatment ([4]; 40 mg aspirin bid three days, fourth day 500 mg immediate release nicotinic acid with 40 mg aspirin, three subjects): None of the subjects experienced any appreciable flushing | IC50 ([5]; THP-1, read-out: IC50, inhibition of niacin-stimulated release of PG from THP-1 cells): ~380 nM and ~0.07 µg/mL | flushing, aspirin 1/2 hour before niacin, third subject ([6]; 325 mg aspirin 1/2 hour before 500 mg immediate release niacin, third subject): severe flushing | flushing, aspirin 1/2 hour before niacin ([6]; 325 mg aspirin 1/2 hour before 500 mg immediate release niacin, two subjects): flushing, though slightly diminished | side effects from niacin versus sustained release aspirin predosing ([6]; 325 mg aspirin 1/2 hour before niacin, compared with SR aspirin for 6 hours, three subjects): significantly greater side effects | AUCflux ([7]; aspirin 81 mg bid three days then 500 mg nicotinic acid + 81 mg aspirin vs placebo then niacin, p = 0.0001 (paired t test)): 3022.5 + 2772 | Flushing duration ([7]; p = 0.002 (paired t test)): 15.8 ± 16 min | Local T° change [8]: 0.61 ± 0.56 °C | Rating of Flushing by Subject: Mild [9]: 4 | Rating of Flushing by Subject: Moderate [9]: 1 | Rating of Flushing by Subject: None [9]: 6 | Rating of Flushing by Subject: Severe [9]: 3 | Rating of Flushing by Subject: Very severe [9]: 0 | Rating of Flushing by Investigator: Mild [10]: 2 | Rating of Flushing by Investigator: Moderate [10]: 3 | Rating of Flushing by Investigator: None [10]: 8 | Rating of Flushing by Investigator: Severe [10]: 1 | Rating of Flushing by Investigator: Very severe [10]: 0 | inhibition of synthesis of PGs such as E2 and F2, concentrations [1]: high micromolar | inhibition of nicotinic acid-induced flush (increase in ear temperature) [11]: inhibited | reduction of cutaneous flush [12]: significantly reduce cutaneous flush | niacin-associated flushing, warmth, itching and tingling, 80 mg aspirin ([13]; 80 mg aspirin 30 minutes prior to niacin, compared to placebo): even more aggravated flushing, warmth, itching and tingling | niacin-associated warmth, flushing, itching and tingling, 325 mg aspirin [13, 21]: decrease the warmth and flushing associated with niacin, but not the itching and tingling | patients with flushing and warmth [13, 21]: at least 72 % of the patients | patients with complete inhibition of platelet aggregation (platelet aggregation; [22]): 288 patients | patients with partial inhibition of platelet aggregation (platelet aggregation; [22]): 78 patients | patients with initial partial inhibition achieving complete inhibition (platelet aggregation; of 52 patients, dosage escalation or fluctuation of response): 35 | patients reverted to partial inhibition on further testing (platelet aggregation; of the 35): 8 | patients converted from complete to partial inhibition (platelet aggregation; repeat testing, without change in aspirin dosage): about 33% | Minimum Anti-inflammatory Dosage (inflammation; [20]): 325 mg

O=C(O)c1cccnc1 [niacin, nicotinic acid]
excretion of PGD-M in urine ([3]; 500 mg nicotinic acid 1 hour after single 40 mg aspirin, over 7 hours (FIG. 1)): significant amounts | flushing, nicotinic acid without aspirin ([4]; single 500 mg dose without aspirin, all three subjects): severe flushing | in vitro release of PGs from THP-1 ([5]; FIG. 4): stimulate in vitro release of PGs | metabolites of PGD2 in urine [14]: increased amounts | metabolites of leukotriene in urine [14]: increased amounts | metabolites of thromboxane in urine [14]: increased amounts | release of 9a, 11b-PGF2 [15]: increased the release | release of thromboxane (TxB2) [15]: did not release | in vitro release of PGs from human circulating monocytes [16]: stimulate in vitro release of PGs | patients who cease taking nicotinic acid [17]: 30-40 % of patients | level of prostaglandin F2 on repeated administration ([18]; after 6 days of continuous, twice daily administration): decreases markedly | concentration of prostaglandin F2 in blood coming from the skin ([18]; following administration of niacin): dramatic rise

CC1=C(CC(=O)O)c2cc(F)ccc2/C1=C\c1ccc([S+](C)[O-])cc1 (stereo not shown) [Sulindac]
Minimum Anti-inflammatory Dosage (inflammation; Goodman and Gilman, 9th ed.): 150 mg

Cc1ccc(C(=O)c2ccc(CC(=O)O)n2C)cc1 [Tolmetin]
Minimum Anti-inflammatory Dosage (inflammation; [20]): 400 mg

COc1ccc2cc([C@H](C)C(=O)O)ccc2c1 [naproxen]
inhibition of synthesis of PGs such as E2 and F2, concentrations [1]: high micromolar | Minimum Anti-inflammatory Dosage (inflammation; [20]): 250 mg

COc1ccc2c(c1)c(CC(=O)O)c(C)n2C(=O)c1ccc(Cl)cc1 [indomethacin]
IC50 ([5]; THP-1, read-out: IC50, PG production in THP-1 cells): ~1 nM | sensitivity of THP-1 cells relative to other cells ([5]; THP-1 versus other cells): approximately 1000 times | inhibitory concentrations on PG production in other cell types [19]: micromolar range | inhibition of synthesis of PGs such as E2 and F2, concentrations [1]: high micromolar | inhibition of nicotinic acid-induced flush (increase in ear temperature) [11]: inhibited | Minimum Anti-inflammatory Dosage (inflammation; [20]): 25 mg

O=C(O)CCc1nc(-c2ccccc2)c(-c2ccccc2)o1 [Oxaprozin]
Minimum Anti-inflammatory Dosage (inflammation; Goodman and Gilman, 9th ed.): 600 mg

CC(C(=O)O)c1cccc(C(=O)c2ccccc2)c1 (stereo not shown) [Ketoprofen]
Minimum Anti-inflammatory Dosage (inflammation; Goodman and Gilman, 9th ed.): 150 mg

CC(C(=O)O)c1ccc(-c2ccccc2)c(F)c1 (stereo not shown) [Flurbiprofen]
Minimum Anti-inflammatory Dosage (inflammation; Goodman and Gilman, 9th ed.): 50 mg

CC(C)Cc1ccc(C(C)C(=O)O)cc1 (stereo not shown) [ibuprofen]
inhibition of synthesis of PGs such as E2 and F2, concentrations [1]: high micromolar

CC(C(=O)O)c1cccc(Oc2ccccc2)c1 (stereo not shown) [Fenoprofen]
Minimum Anti-inflammatory Dosage (inflammation; Goodman and Gilman, 9th ed.): 300 mg

Source: patent US5981555A, “Compositions, kits and methods for administration of antilipemic drugs” (Lipoprotein Technologies, Inc., priority 1997, dated 1999)
